Data as given in PubChem BioAssay AID588580 (Sanford-Burnham Center for Chemical Genomics, 2011).
Activity calls are given as the source filed them.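 The calls were made as follows: active = mean EC50 of 20 µM or lower; inactive = the rest.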

The compounds below were run against CHO XBP1-luciferase reporter, UPR activation, luminescence (assay: XBP1 luciferase reporter activation in CHO cells – cell-based, luciferase luminescence, set 2, SAR follow-up (AID 588580)).

Row | Compound | EC50
1 | Cc1cc(NC(=O)c2cc(-c3ccncc3)nc3ccccc23)ccc1Cl | inactive
2 | Cc1cc(Br)cc(NC(=O)c2cc(-c3ccncc3)nc3ccccc23)c1 | > 80 µM (inactive)
3 | O=C(Nc1cccc(C(F)(F)F)c1)c1cc(-c2ccncc2)nc2ccccc12 | > 80 µM (inactive)
4 | O=C(Nc1ccc(C(F)(F)F)cc1)c1cc(-c2ccncc2)nc2ccccc12 | 2.2 µM
5 | O=C(Nc1ccc(Br)c(C(F)(F)F)c1)c1cc(-c2ccncc2)nc2ccccc12 | > 80 µM (inactive)
6 | COc1cccc(NC(=O)c2cc(-c3ccncc3)nc3ccccc23)c1 | > 80 µM (inactive)
7 | Cc1cc(NC(=O)c2cc(-c3ccccc3)nc3ccccc23)ccc1Br | > 80 µM (inactive)
8 | O=C(Nc1ccc(F)c(F)c1)c1cc(-c2ccncc2)nc2ccccc12 | inactive
9 | Cc1cc(NC(=O)c2cc(-c3ccncc3)nc3ccccc23)ccc1F | > 80 µM (inactive)

Further lines, results first:

Row | EC50 | Compound
10 | > 80 µM (inactive) | Cc1cccc(NC(=O)c2cc(-c3ccncc3)nc3ccccc23)c1
11 | > 80 µM (inactive) | O=C(Nc1cccc(Cl)c1)c1cc(-c2ccncc2)nc2ccccc12
12 | 8.42 µM | O=C(Nc1ccc(Cl)cc1)c1cc(-c2ccncc2)nc2ccccc12
13 | 13.4 µM | Cc1ccc(NC(=O)c2cc(-c3ccncc3)nc3ccccc23)cc1
14 | > 80 µM (inactive) | O=C(Nc1cccc(F)c1Br)c1cc(-c2ccncc2)nc2ccccc12
15 | inactive | O=C(Nc1ccc(F)cc1)c1cc(-c2ccncc2)nc2ccccc12
16 | > 80 µM (inactive) | O=C(Nc1cccc(Br)c1)c1cc(-c2ccncc2)nc2ccccc12
17 | > 80 µM (inactive) | O=C(Nc1cccc(F)c1F)c1cc(-c2ccncc2)nc2ccccc12
18 | inactive | O=C(Nc1cccc(F)c1)c1cc(-c2ccncc2)nc2ccccc12
19 | > 80 µM (inactive) | O=C(Nc1cc(F)ccc1F)c1cc(-c2ccncc2)nc2ccccc12
20 | > 80 µM (inactive) | O=C(Nc1ccccc1Br)c1cc(-c2ccncc2)nc2ccccc12
